According to patent US20240051936A1, “ISOINDOLINONE COMPOUNDS” (Monte Rosa Therapeutics, Inc., priority 2021, published 2024):
Where two headings read alike, the source gives them in different places.

Experiments:
[1] = molecular target: GSPT1 (Homo sapiens (Human), UniProt P15170+Q96SW2); test: Immunofluorescence assay for GSPT1 degradation in CAL-Si cells; format: cell-based; details: CAL-Si cells
Protocol: The compounds were tested in an immunofluorescence assay for their activity to bind to degrade GSPT1. CAL-Si cells were purchased from DSMZ (cat. Number ACC302), sub-cultured in 90% Dulbecco's MEM (4.5 g/L glucose, Gibco 11965)+10% heat inactivated FBS (BioConcept, 2-01F136I) and incubated at 37° C., 5% CO2. For the assay, imaging microtiterplate Cell Carrier 96 Ultra (Perkin Elmer 6055302) were pre-coated with Fibronectin (Sigma F085, 30 μl at 0.2 μg/ml) in PBS (100 μl, Gibco 14190) for 45 min at room temperature, rinsed with PBS and CAL-Si cells (30K cells/well) were plated and let to adhere overnight. Cells were treated with compounds typically using a serial dilution ranging from 30 μM to 0.1 nM for 6 hours. Compounds were stored at 10 mM DMSO stocks. Vehicle (DMSO), positive (CC-885, 10 μM) and rescue controls (positive control plus 0.2 μM bortezomib) were also included at this stage. Cells were subsequently rinsed with PBS and fixed in 10% Formalin solution (50 μl, Sigma HT5011)) for 20 mins at room temperature. Following three consecutive PBS washes (100 μl), cells were permeabilized in 0.1% Triton X-100 in PBS (Sigma 93443, 50 μl) for 15 mins at room temperature. Following three further PBS washes, 50 μl blocking buffer (1% BSA, Sigma A4503, in PBS) was added for 45 min for signal-to-noise reduction.
Primary antibody (human GSPT1, Sigma HPA052488) was diluted in blocking buffer (dil.1/300, 35 μl/well) and incubated with the cells overnight at 4° C. After three PBS washes, Alexa-fluor 488 coupled secondary antibodies (Invitrogen, A32731, dil.1/1000), Alexa-fluor 647-Phalloïdin (Invitrogen, A22287, dil.1/200) and DAPI (Thermo, #62248, dil.1/1000) were diluted in blocking buffer and incubated with the samples for 2 hours at room temperature. After three final PBS washes, samples were conserved in 100 μl PBS in the dark, until measurement. Image acquisition was performed on the Operetta High-Content Imager (Perkin-Elmer). Fluorescence intensity of Alexa-Fluor 488 (GSPT1), Alexa-Fluor 647 (Actin) and DAPI (Nucleus) were measured. For the determination of GSPT1 DC50 values, a custom algorithm implemented in the PerkinElmer image analysis software Harmony-Acapella® was developed. After user-defined setting of adjustment parameters, the analysis was run identically without human intervention for all image fields. DAPI staining of the nuclei was used to determine the location of cells using standard nuclei detection modules. Segmentation artifacts were removed by threshold-based filters for area, roundness and intensity. The outline of the cells was determined analogously from the sum of the normalized, smoothed DAPI and Actin channel, starting from each nucleus. The Alexa-Fluor 488 (GSPT1) signal intensity in each cell was finally measured, in order to obtain a Mean intensity per cell. GSPT1 degradation (DC50) was calculated after normalization to controls and data import in CDD vault Database, using non-linear regression.

[2] = molecular target: Full length wild-type cereblon CRBN (Homo sapiens (Human), UniProt Q96SW2); test: Fluorescence polarization (FP) assay, cereblon binding
Chain of Full length wild-type cereblon CRBN (Q96SW2 whole entry): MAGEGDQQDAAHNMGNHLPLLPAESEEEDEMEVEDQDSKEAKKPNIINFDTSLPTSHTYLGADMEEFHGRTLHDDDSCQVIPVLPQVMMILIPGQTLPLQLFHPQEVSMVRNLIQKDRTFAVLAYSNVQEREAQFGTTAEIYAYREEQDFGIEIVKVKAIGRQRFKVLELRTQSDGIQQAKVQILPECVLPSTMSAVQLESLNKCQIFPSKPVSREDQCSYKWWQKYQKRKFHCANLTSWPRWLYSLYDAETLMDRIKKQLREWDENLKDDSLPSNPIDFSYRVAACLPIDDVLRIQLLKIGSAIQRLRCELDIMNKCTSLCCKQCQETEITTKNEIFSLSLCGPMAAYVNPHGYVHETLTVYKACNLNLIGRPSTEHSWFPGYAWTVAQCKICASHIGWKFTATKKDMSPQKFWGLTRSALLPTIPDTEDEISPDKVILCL
Protocol: Compound activity was monitored in a fluorescence polarization (FP) homogeneous assay using 1-[5-({2-[2-(2-{[2-(2,6-dioxopiperidin-3-yl)-1,3-dioxo-2,3-dihydro-1H-isoindol-4-yl]oxy}acetamido)ethoxy]ethyl}carbamoyl)pentyl]-3,3-dimethyl-2-[(1E,3E)-5-[(2E)-1,3,3-trimethyl-5-sulfo-2,3-dihydro-1H-indol-2-ylidene]penta-1,3-dien-1-yl]-3H-indol-1-ium-5-sulfonate as a fluorescent probe. Unless otherwise stated, all reagents were purchased from Sigma Aldrich. Enzymatic reactions were conducted in Perkin-Elmer Black 384 well ProxiPlate Plus (catalogue no. 6008269) in 10 sL total volume. Full length wild-type cereblon CRBN (80.0 nM, 10 sL) was incubated in assay buffer containing 20 mM HEPES (pH 8.0), […], 0.5 mM TCEP and 0.05% Tween 20 in the presence or absence of compound (300 nL). Inhibitors were stored as 10 mM DMSO stocks in an inert environment (low humidity, dark, low oxygen, room temperature) using the Storage Pod System.
Compounds and DMSO were dispensed using the Echo E5XX (Labcyte Inc. USA) to give concentrations from 300 to 0.937 or 3000 to 9.3 nM in a 12 data point curve. […] Following incubation at room temperature for 30 min, the assay was initiated by dispensing the probe to a final concentration of 5 nM (2.5 nL of a 20 μM stock) using the Echo E5XX. FP was measured after a period of 12 hours using a Pherastar plate reader (BMG Labtech, Germany) exciting at 590 nm and measuring the amount of parallel and perpendicular light at 675 nm. The FP signal was subsequently normalized to the no-compound control (i.e., DMSO). Analysis and IC50 values were derived using Dotmatics (Dotmatics UK) software.

[3] = compounds with code A, read-out: DC50 value code
[4] = treated 6 hours, read-out: Code, activity for GSPT1 degradation (DC50)
[5] = cereblon binding, bound, read-out: IC50 value
[6] = wild-type CRBN 80.0 nM, probe 5 nM, FP measured after 12 hours, read-out: rFP IC50

Chain of GSPT1 (P15170 whole entry): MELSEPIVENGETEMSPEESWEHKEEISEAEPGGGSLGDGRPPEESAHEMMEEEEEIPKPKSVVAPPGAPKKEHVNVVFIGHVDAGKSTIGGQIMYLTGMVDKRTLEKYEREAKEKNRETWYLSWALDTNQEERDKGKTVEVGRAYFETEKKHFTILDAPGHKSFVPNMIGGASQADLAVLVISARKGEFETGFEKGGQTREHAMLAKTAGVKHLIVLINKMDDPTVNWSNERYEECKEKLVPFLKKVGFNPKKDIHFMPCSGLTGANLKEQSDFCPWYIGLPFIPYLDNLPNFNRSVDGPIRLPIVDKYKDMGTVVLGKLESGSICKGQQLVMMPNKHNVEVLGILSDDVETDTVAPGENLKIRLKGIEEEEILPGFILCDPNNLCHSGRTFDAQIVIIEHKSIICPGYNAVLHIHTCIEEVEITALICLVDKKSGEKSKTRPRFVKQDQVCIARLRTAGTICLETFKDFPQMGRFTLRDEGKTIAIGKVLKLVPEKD
Chain of GSPT1 (Q96SW2 whole entry): as the sequence (Q96SW2 whole entry) above
Chain of GSPT1 (Q16531 whole entry partner): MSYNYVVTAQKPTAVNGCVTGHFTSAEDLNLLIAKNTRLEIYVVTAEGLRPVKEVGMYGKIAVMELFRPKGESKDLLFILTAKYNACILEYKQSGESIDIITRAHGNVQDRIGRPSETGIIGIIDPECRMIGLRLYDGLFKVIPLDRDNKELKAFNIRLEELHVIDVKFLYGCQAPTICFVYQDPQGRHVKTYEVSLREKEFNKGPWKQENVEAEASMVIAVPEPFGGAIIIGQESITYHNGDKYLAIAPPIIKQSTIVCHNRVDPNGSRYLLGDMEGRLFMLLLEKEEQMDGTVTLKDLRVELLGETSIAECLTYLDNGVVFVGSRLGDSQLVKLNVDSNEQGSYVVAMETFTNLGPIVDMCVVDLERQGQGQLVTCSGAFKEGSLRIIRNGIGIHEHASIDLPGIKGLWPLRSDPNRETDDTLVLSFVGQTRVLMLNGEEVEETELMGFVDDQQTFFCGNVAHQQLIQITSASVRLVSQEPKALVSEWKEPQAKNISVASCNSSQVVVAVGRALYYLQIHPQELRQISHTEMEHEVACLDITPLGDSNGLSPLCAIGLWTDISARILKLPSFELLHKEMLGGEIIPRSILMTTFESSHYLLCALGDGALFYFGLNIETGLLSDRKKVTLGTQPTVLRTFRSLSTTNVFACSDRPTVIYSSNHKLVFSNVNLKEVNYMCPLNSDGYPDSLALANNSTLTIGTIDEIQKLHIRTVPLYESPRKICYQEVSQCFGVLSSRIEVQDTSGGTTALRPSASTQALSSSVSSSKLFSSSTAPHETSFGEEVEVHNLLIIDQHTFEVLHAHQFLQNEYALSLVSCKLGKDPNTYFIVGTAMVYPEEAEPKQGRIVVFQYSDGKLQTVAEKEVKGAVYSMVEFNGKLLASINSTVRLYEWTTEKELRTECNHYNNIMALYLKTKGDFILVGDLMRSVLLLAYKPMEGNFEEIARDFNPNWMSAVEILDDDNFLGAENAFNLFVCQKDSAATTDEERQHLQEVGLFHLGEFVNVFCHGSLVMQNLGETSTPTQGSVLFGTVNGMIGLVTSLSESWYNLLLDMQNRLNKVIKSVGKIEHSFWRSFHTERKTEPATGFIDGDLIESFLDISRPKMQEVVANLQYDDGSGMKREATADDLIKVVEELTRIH

Structure (SMILES): COc1cc(COC(=O)Nc2ccc(C3(C)CC3)cc2)cc2c1CN(C1CCC(=O)NC1=O)C2=O (centres unmarked) [Compound 40, (2-(2,6-dioxopiperidin-3-yl)-7-methoxy-3-oxoisoindolin-5-yl)methyl (4-(1-methylcyclopropyl)phenyl)carbamate]
- DC50 [1, 3]: < 30 nM
- DC50 [1, 4]: < 30 nM
- IC50 [2, 5]: < 600 nM
- IC50 [2, 6]: ≤ 600 nM

Structure (SMILES): COc1cc(COC(=O)Nc2cc(F)cc(OC(F)(F)F)c2)cc2c1CN(C1CCC(=O)NC1=O)C2=O (centres unmarked) [Compound 41, (2-(2,6-dioxopiperidin-3-yl)-7-methoxy-3-oxoisoindolin-5-yl)methyl (3-fluoro-5-(trifluoromethoxy)phenyl) carbamate]
- DC50 [1, 4]: 30 to 300 nM
- IC50 [2, 5]: < 600 nM
- IC50 [2, 6]: 1200 to 1900 nM

Structure (SMILES): COc1cc(COC(=O)Nc2ccc(-c3ccccn3)cc2)cc2c1CN(C1CCC(=O)NC1=O)C2=O (centres unmarked) [Compound 42, (2-(2,6-dioxopiperidin-3-yl)-7-methoxy-3-oxoisoindolin-5-yl)methyl (4-(pyridin-2-yl)phenyl)carbamate]
- DC50 [1, 3]: < 30 nM
- DC50 [1, 4]: < 30 nM
- IC50 [2, 5]: < 600 nM
- IC50 [2, 6]: 600 to 1200 nM

Structure (SMILES): COc1cc(COC(=O)Nc2ccc(C(C)(C)C)cc2)cc2c1CN(C1CCC(=O)NC1=O)C2=O (centres unmarked) [Compound 43, (2-(2,6-dioxopiperidin-3-yl)-7-methoxy-3-oxoisoindolin-5-yl)methyl (4-(tert-butyl)phenyl)carbamate]
- DC50 [1, 3]: < 30 nM
- DC50 [1, 4]: < 30 nM
- IC50 [2, 5]: < 600 nM
- IC50 [2, 6]: 600 to 1200 nM

Structure (SMILES): COc1cc(COC(=O)Nc2ccc(C(C)(C)C)nc2)cc2c1CN(C1CCC(=O)NC1=O)C2=O (centres unmarked) [Compound 44, (2-(2,6-dioxopiperidin-3-yl)-7-methoxy-3-oxoisoindolin-5-yl)methyl (6-(tert-butyl)pyridin-3-yl)carbamate]
- DC50 [1, 3]: < 30 nM
- DC50 [1, 4]: < 30 nM
- IC50 [2, 5]: < 600 nM
- IC50 [2, 6]: ≤ 600 nM

Structure (SMILES): COc1cc(COC(=O)Nc2ccc(-c3ccccc3)nc2)cc2c1CN(C1CCC(=O)NC1=O)C2=O (centres unmarked) [Compound 45, (2-(2,6-dioxopiperidin-3-yl)-7-methoxy-3-oxoisoindolin-5-yl)methyl(6-phenylpyridin-3-yl)carbamate]
- DC50 [1, 3]: < 30 nM
- DC50 [1, 4]: < 30 nM
- IC50 [2, 5]: < 600 nM
- IC50 [2, 6]: 600 to 1200 nM

Structure (SMILES): COc1cc(COC(=O)Nc2ccc(F)c(OC(F)F)c2)cc2c1CN(C1CCC(=O)NC1=O)C2=O (centres unmarked) [Compound 46, (2-(2,6-dioxopiperidin-3-yl)-7-methoxy-3-oxoisoindolin-5-yl)methyl(3-(difluoromethoxy)-4-fluorophenyl)carbamate]
- DC50 [1, 4]: 30 to 300 nM
- IC50 [2, 5]: < 600 nM
- IC50 [2, 6]: 600 to 1200 nM

Structure (SMILES): COc1cc(COC(=O)Nc2ccc(C)c(OC(F)F)c2)cc2c1CN(C1CCC(=O)NC1=O)C2=O (centres unmarked) [Compound 48, (2-(2,6-dioxopiperidin-3-yl)-7-methoxy-3-oxoisoindolin-5-yl)methyl (3-(difluoromethoxy)-4-methylphenyl) carbamate]
- DC50 [1, 4]: 30 to 300 nM
- IC50 [2, 5]: < 600 nM
- IC50 [2, 6]: 1200 to 1900 nM

Structure (SMILES): COc1cc(COC(=O)Nc2cc(Cl)cc(OC(F)F)c2)cc2c1CN(C1CCC(=O)NC1=O)C2=O (centres unmarked) [Compound 49, (2-(2,6-dioxopiperidin-3-yl)-7-methoxy-3-oxoisoindolin-5-yl)methyl (3-chloro-5-(difluoromethoxy)phenyl)carbamate]
- DC50 [1, 3]: < 30 nM
- DC50 [1, 4]: < 30 nM
- IC50 [2, 5]: < 600 nM
- IC50 [2, 6]: 600 to 1200 nM

Structure (SMILES): COc1cc(COC(=O)Nc2cc(F)cc(Cl)c2)cc2c1CN(C1CCC(=O)NC1=O)C2=O (centres unmarked) [Compound 50, (2-(2,6-dioxopiperidin-3-yl)-7-methoxy-3-oxoisoindolin-5-yl)methyl(3-chloro-5-fluorophenyl)carbamate]
- DC50 [1, 3]: < 30 nM
- DC50 [1, 4]: < 30 nM
- IC50 [2, 5]: < 600 nM
- IC50 [2, 6]: 600 to 1200 nM

Structure (SMILES): COc1cc(COC(=O)Nc2ccc(F)c(Cl)c2)cc2c1CN(C1CCC(=O)NC1=O)C2=O (centres unmarked) [Compound 51, (2-(2,6-dioxopiperidin-3-yl)-7-methoxy-3-oxoisoindolin-5-yl)methyl(3-chloro-4-fluorophenyl)carbamate]
- DC50 [1, 4]: 30 to 300 nM
- IC50 [2, 5]: < 600 nM
- IC50 [2, 6]: 600 to 1200 nM

Structure (SMILES): COc1cc(COC(=O)Nc2cc(C)cc(C)c2)cc2c1CN(C1CCC(=O)NC1=O)C2=O (centres unmarked) [Compound 52, (2-(2,6-dioxopiperidin-3-yl)-7-methoxy-3-oxoisoindolin-5-yl)methyl (3,5-dimethylphenyl)carbamate]
- DC50 [1, 4]: 30 to 300 nM
- IC50 [2, 5]: < 600 nM
- IC50 [2, 6]: ≤ 600 nM

Structure (SMILES): COc1cc(COC(=O)Nc2cccc(OC(F)F)c2)cc2c1CN(C1CCC(=O)NC1=O)C2=O (centres unmarked) [Compound 53, (2-(2,6-dioxopiperidin-3-yl)-7-methoxy-3-oxoisoindolin-5-yl)methyl (3-(difluoromethoxy)phenyl)carbamate]
- DC50 [1, 3]: < 30 nM
- DC50 [1, 4]: < 30 nM
- IC50 [2, 5]: < 600 nM
- IC50 [2, 6]: ≤ 600 nM

Structure (SMILES): COc1cc(COC(=O)Nc2cccc(C(C)(C)C)c2)cc2c1CN(C1CCC(=O)NC1=O)C2=O (centres unmarked) [Compound 54, (2-(2,6-dioxopiperidin-3-yl)-7-methoxy-3-oxoisoindolin-5-yl)methyl (3-(tert-butyl)phenyl)carbamate]
- DC50 [1, 3]: < 30 nM
- DC50 [1, 4]: < 30 nM
- IC50 [2, 5]: < 600 nM
- IC50 [2, 6]: ≤ 600 nM

Structure (SMILES): COc1cc(COC(=O)Nc2cccc(OC(F)(F)F)c2)cc2c1CN(C1CCC(=O)NC1=O)C2=O (centres unmarked) [Compound 55, (2-(2,6-dioxopiperidin-3-yl)-7-methoxy-3-oxoisoindolin-5-yl) methyl (3-(trifluoromethoxy)phenyl)carbamate]
- DC50 [1, 3]: < 30 nM
- DC50 [1, 4]: < 30 nM
- IC50 [2, 6]: 600 to 1200 nM

Structure (SMILES): COc1cc(COC(=O)Nc2cc(-c3ccccc3)ccn2)cc2c1CN(C1CCC(=O)NC1=O)C2=O (centres unmarked) [Compound 56, (2-(2,6-dioxopiperidin-3-yl)-7-methoxy-3-oxoisoindolin-5-yl)methyl (4-phenylpyridin-2-yl)carbamate]
- DC50 [1, 3]: < 30 nM
- DC50 [1, 4]: < 30 nM
- IC50 [2, 5]: < 600 nM
- IC50 [2, 6]: ≤ 600 nM

Structure (SMILES): COc1cc(COC(=O)Nc2cccc(OC3CC3)c2)cc2c1CN(C1CCC(=O)NC1=O)C2=O (centres unmarked) [Compound 58, (2-(2,6-dioxopiperidin-3-yl)-7-methoxy-3-oxoisoindolin-5-yl)methyl (3-cyclopropoxyphenyl)carbamate]
- DC50 [1, 4]: > 300 nM
- IC50 [2, 5]: < 600 nM
- IC50 [2, 6]: ≤ 600 nM

Structure (SMILES): COc1cc(COC(=O)Nc2cnc(-c3ccccc3)c(C)c2)cc2c1CN(C1CCC(=O)NC1=O)C2=O (centres unmarked) [Compound 59, (2-(2,6-dioxopiperidin-3-yl)-7-methoxy-3-oxoisoindolin-5-yl)methyl(5-methyl-6-phenylpyridin-3-yl)carbamate]
- DC50 [1, 3]: < 30 nM
- DC50 [1, 4]: < 30 nM
- IC50 [2, 5]: < 600 nM
- IC50 [2, 6]: ≤ 600 nM
